Converted amounts (≈) assume the structure as drawn.
How the values were obtained:
[1] = system: methicillin-resistant Staphylococcus aureus (MRSA); assay: MIC by broth microdilution method; type: cell-based
Experimental: (§1) The MIC was determined by the broth microdilution method. […] Stock solutions were serially diluted (2-fold) in sterile Müeller Hinton broth (MHB) with a dilution range of 0.125 to 150 µg/mL. Overnight culture turbidity was adjusted equivalent to the 0.5 McFarland standard and then diluted to give a final concentration equivalent to 10^6 CFU/mL [30]. One hundred microliters of the adjusted bacterial culture were added to an equal volume of the tested dilutions in a 96-well microtiter plate. The plates were then incubated at 37 °C for 24 h.
(§2) The MIC was recorded as the lowest concentration of an antimicrobial agent, which gave no visible growth. […] The experiment was conducted in triplicate. The mean as well as standard deviation were recorded.

Staphylococcus aureus = assay: MIC by broth microdilution method; type: cell-based; settings: Staphylococcus aureus (ATCC® 25922)
Experimental: as §1, §2

human leukocyte elastase = target: T1, human leukocyte elastase (Homo sapiens, UniProt P08246); assay: Anti-elastase assay; type: biochemical
T1 construct: purchased Nawah Scientific Inc., Cairo, Egypt
T1 sequence (P08246 30-267): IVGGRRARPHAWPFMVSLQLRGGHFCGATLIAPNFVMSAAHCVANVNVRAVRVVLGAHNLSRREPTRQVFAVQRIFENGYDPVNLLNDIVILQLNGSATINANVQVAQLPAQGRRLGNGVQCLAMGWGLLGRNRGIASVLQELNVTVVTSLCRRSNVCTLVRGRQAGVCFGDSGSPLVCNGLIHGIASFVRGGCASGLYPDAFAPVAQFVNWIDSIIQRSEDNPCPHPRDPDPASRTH
Experimental: The anti-elastase, anti-collagenase, and anti-tyrosinase activities were assessed following the method reported by Mostafa et al. [32]. […] For the anti-elastase assay, human leukocyte elastase (1 µg/mL) was incubated with N-2-hydroxyethylpiperazine-N-2-ethane sulfonic acid (HEPES) buffer (pH 7.5). Each of the tested samples or the standard inhibitor N-Methoxysuccinyl-Ala-Ala-Pro-chloromethyl ketone (1.4 mg/mL) was added into the 96-well plate for 20 min at 25 °C before the addition of 100 µL substrate of 1 mM N-Methoxysuccinyl-Ala-Ala-Pro-Val-p-nitroanilide. Afterward, the optical density was measured after 40 min of incubation at 405 nm against a blank well lacking the test sample/inhibitor. Various concentrations of the tested samples (25–300 µg/mL) were used.
Moreover, in vitro skin-related enzyme inhibitory assays were carried out in triplicates, and results were expressed as mean ± standard deviation. A non-linear regression curve was used to calculate IC50. An unpaired t-test was used for statistical comparison between the two groups. p < 0.05 is considered statistically significant. […]

mushroom tyrosinase = assay: Anti-tyrosinase assay; type: biochemical
Experimental: For the anti-tyrosinase assay, mushroom tyrosinase (5600 units/mL) was incubated at 37 °C for 15 min along with tested samples or standard inhibitor kojic acid (1.4 mg/mL) before the addition of the substrate 1 mM L-DOPA. Afterward, the optical density of the formed dopachrome was analyzed at 475 nm. Various concentrations of the tested samples (75–500 µg/mL) were used. All tests were conducted in triplicate. The enzyme inhibition activity was expressed in percentage using the following equation: (5) Enzyme inhibition activity %=Optical density of control – Optical density of sample/Optical density of control×100
Statistical analysis of in vitro drug release kinetic models was carried out using one-way analysis of variance (ANOVA) followed by Tukey’s Multiple Comparison post hoc test; p ≤ 0.05. Moreover, in vitro skin-related enzyme inhibitory assays were carried out in triplicates, and results were expressed as mean ± standard deviation. A non-linear regression curve was used to calculate IC50. An unpaired t-test was used for statistical comparison between the two groups. p < 0.05 is considered statistically significant. Analyses were done using GraphPad Prism 6.01 (San Diego, CA, USA).

[2] = In vitro drug release, dialysis bag diffusion method; type: physicochemical; settings: after 6 h; PBS pH 7.4, 37 °C
Experimental: The dissolution medium was phosphate buffer saline (PBS) (pH 7.4), which mimics physiological pH. […] Aliquots of 3 mL were taken from the dissolution medium at predefined time points at 0.5, 1, 2, 3, 4, 5, 6, 7, 8, 10, 12, 24, 36, and finally at 48 h. The sink conditions were maintained by immediately replenishing the equivalent volume of fresh PBS (pH 7.4) after each aliquot withdrawal. […] The study was performed in triplicate and was graphically presented as the cumulative percentage of drug release versus time. Data from the in vitro drug release study was further analyzed using different kinetic models to determine the drug release pattern.
Statistical analysis of in vitro drug release kinetic models was carried out using one-way analysis of variance (ANOVA) followed by Tukey’s Multiple Comparison post hoc test; p ≤ 0.05. […] Analyses were done using GraphPad Prism 6.01 (San Diego, CA, USA).

RBCs = settings: cited from earlier work
[3] = target: collagenase type 1 from Clostridium histolyticum; assay: Anti-collagenase assay; type: biochemical; settings: +ve control = EDTA
Experimental: For the anti-collagenase, collagenase type 1 from Clostridium histolyticum (1 mg/mL) buffer (pH 7.4) along with tested samples or standard inhibitor ethylenediamine tetraacetic acid (EDTA) (1.4 mg/mL) were incubated at 37 °C for 20 min prior to the addition of 100 µL of the substrate 2-furanacryloyl-l-leucylglycyl-l-prolyl-l-alanine (FALGPA). The mixture was then incubated at 37 °C for an additional 1 h before the addition of 200 µL of 2% ninhydrin in 200 mM citrate buffer (pH 5) and placed in a water bath for 5 min. Afterward, the solution was left to cool down completely. Afterwards 200 µL of 50% isopropanol was added, and the optical densities were analyzed at 540 nm. Various concentrations of the tested samples (25–300 µg/mL) were used.

[4] = susceptible ≤4 µg/mL, resistant ≥8 µg/mL

CC(=O)NC[C@H]1CN(c2ccc(N3CCOCC3)c(F)c2)C(=O)O1 [LNZ, Linezolid]
Minimum Inhibitory Concentration (MIC) ([1]; 37 °C, 24 h): 4 ± 0.00 µg/mL
MIC ([1]; Staphylococcus aureus, 37 °C, 24 h, read-out: Minimum Inhibitory Concentration (MIC)): 4 µg/mL (≈ 11.9 µM)
susceptibility class (CLSI breakpoints) [1, 4]: S (S: sensitive)
MIC (Staphylococcus aureus; ATCC25922, 37 °C, 24 h, read-out: Minimum Inhibitory Concentration (MIC)): 4 µg/mL (≈ 11.9 µM)
Minimum Inhibitory Concentration (MIC) (Staphylococcus aureus; 37 °C, 24 h): 4 ± 0.00 µg/mL
susceptibility class (CLSI breakpoints) (Staphylococcus aureus; [4]): S (S: sensitive)
IC50 (human leukocyte elastase; +ve control = N-Methoxysuccinyl-Ala-Ala-Pro-chloromethyl ketone, read-out: Anti-Elastase IC50 (µg/mL) (converted)): 170 µM
Anti-Elastase % Inhibition (human leukocyte elastase; samples tested 25–300 µg/mL, concentration of this value not stated, +ve control = N-Methoxysuccinyl-Ala-Ala-Pro-chloromethyl ketone (1.4 mg/mL)): 88.00 ± 1.35%
Anti-Tyrosinase IC50 (mushroom tyrosinase; +ve control = kojic acid): 363.50 ± 2.08 µg/mL
Anti-Tyrosinase % Inhibition (mushroom tyrosinase; samples tested 75–500 µg/mL, concentration of this value not stated, +ve control = kojic acid (1.4 mg/mL)): 65.00 ± 1.63%
percentage LNZ released [2]: ~98 ± 0.5%
hemolysis percentage (RBCs): 14%
Anti-Collagenase IC50 [3]: 335.34 ± 2.09 µg/mL

From PMC9862409 (Pharmaceutics, 2023)
